# In US5668165A, “Small molecule inhibition of RNA/ligand binding” (Scriptgen Pharmaceuticals, Inc., priority 1995, dated 1997):
# Assays:
# [1] = system: GST-Sex lethal binding to tra RNA; assay: Sex lethal binding to tra RNA; parameters: species or system Drosophila; conditions: 100 μM
# Description: To determine whether inhibition by 2-DOS aminoglycosides was specific for Rev-RRE interaction, the effect of inhibitory antibiotics on several unrelated sequence-specific RNA- and DNA-binding proteins was examined. Initially, two well-characterized proteins involved in pre-mRNA splicing were examined: the essential splicing factor USAF^65 and the Drosophila splicing regulator Sex lethal.
# In these binding experiments, Sex lethal protein or the 65 kD subunit of U2AF^65, each purified as fusion protein with gluthatione-S-transferase (GST), were incubated with a ^32 P-labelled RNA containing the well-characterized polypyrimidine tract-3' splice site found in the Drosophila tra gene. The incubations were performed in the absence or presence of 100 μM neomycin B or 100 μM tobramycin.
# [2] = biological target: binding of GAPDH to tRNA^Tyr (Homo sapiens, UniProt P04406); assay: GAPDH binding to tRNA; conditions: 100 μM
# Chain of binding of GAPDH to tRNA^Tyr (P04406 whole entry): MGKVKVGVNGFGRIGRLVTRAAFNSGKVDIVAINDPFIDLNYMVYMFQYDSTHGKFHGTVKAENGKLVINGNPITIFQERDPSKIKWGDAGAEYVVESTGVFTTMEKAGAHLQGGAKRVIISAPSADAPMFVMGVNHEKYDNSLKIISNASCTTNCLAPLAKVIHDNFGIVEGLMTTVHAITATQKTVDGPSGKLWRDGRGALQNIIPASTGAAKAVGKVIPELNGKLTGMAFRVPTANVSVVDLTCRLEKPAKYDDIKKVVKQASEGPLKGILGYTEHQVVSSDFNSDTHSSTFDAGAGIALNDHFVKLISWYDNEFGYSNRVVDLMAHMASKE
# Method: Glyceraldehyde 3-phosphate dehydrogenase (GAPDH), a glycolytic enzyme that binds to a subset to transfer RNAs (tRNAs) in a sequence-specific manner, was also analyzed for its sensitivity to 2-DOS antibiotics. The binding of GAPDH to tRNA^Tyr was unaffected by 100 μM neomycin B or 100 μM tobramycin.
# [3] = system: HIV Tat-mediated activation of an HIV LTR-CAT reporter gene; assay: HIV Tat-mediated activation of HIV LTR-CAT reporter; format: cell-based; conditions: comparable concentrations
# Description: First, at all concentrations of antibiotics tested, cellular viability and growth were normal, and total cellular protein synthesis (as monitored by incorporation of [^35 S]methionine into protein) was not inhibited. […] Thus, inhibition of Rev function is not due to interference with CAT gene expression at the transcriptional or posttranscriptional level. The failure to inhibit Tat is particularly relevant, because transcription activation involves an RNA-protein interaction between Tat and trans-acting responsive sequences.
# [4] = biological target: T1, binding of ATF-2 to the HTLV-1 LTR (Homo sapiens, UniProt P15336); assay: ATF-2 DNA binding, gel mobility shift assay; conditions: 100 μM
# T1 sequence (P15336 1-505): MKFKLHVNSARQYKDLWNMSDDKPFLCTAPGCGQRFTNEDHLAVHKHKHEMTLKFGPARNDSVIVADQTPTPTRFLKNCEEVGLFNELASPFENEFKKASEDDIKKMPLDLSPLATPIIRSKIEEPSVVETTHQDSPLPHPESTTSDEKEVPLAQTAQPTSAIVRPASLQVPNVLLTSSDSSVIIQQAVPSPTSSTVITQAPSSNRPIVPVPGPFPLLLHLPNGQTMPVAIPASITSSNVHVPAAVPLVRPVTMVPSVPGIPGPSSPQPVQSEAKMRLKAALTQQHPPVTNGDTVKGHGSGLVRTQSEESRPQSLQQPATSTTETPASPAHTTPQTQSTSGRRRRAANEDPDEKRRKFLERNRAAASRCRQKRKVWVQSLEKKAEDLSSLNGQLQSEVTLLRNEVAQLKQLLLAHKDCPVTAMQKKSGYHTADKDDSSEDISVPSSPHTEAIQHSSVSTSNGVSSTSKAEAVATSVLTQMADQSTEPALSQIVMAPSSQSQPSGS
# Method: In these studies, the DNA binding activities of two eukaryotic transcription factors, Oct-1 and ATF-2, were analyzed using a gel mobility shift assay. Purified Oct-1 was inculcated in the absence or presence of 100 μM neomycin B with a ^32 P-labelled 70-nt DNA probe containing an HSV ICPO octamer binding site (Stern and Her, Genes and Development, 5:2555-2566 (1991)). Additionally, the effect of 100 μM neomycin B on the binding of ATF-2 to a 35-nt DNA probe homologous to nucleotides -251 to -232 of the HTLV-1 LTR was analyzed.
# Rev function = Rev function in vivo: cotransfection assay with CAT reporter plasmid pCM128; format: cell-based, HIV; conditions: cotransfection of pCM128 with a Rev expression plasmid
# Method: The experiments described below were performed to determine whether or not the inhibitory 2-DOS antibiotics antagonize Rev function in vivo. Rev function was measured in a cotransfection assay using the chloramphenicol acetytransferase (CAT) reporter plasmid pCM128, which has a single intron containing both the RRE and the bacterial CAT coding sequence (Hope et al., Proc. Natl. Acad. Sci. USA, 87:7787-7791 (1990)). Normally, the intron is efficiently excised by splicing; therefore, cells transfected with pCM128 express only trace amounts of CAT enzyme activity. Cotransfection with a Rev expression plasmid permits unspliced transcripts to enter the cytoplasm, and thus CAT expression is increased.
# 67-nt RRE RNA = assay: Chemical footprinting (DMS/kethoxal) of the RRE; format: binding, HIV; conditions: 0.1, 1.0 and 10 μM; DMS or kethoxal
# Method: The experiments described below were performed to determine whether or not neomycin B complexes directly with the RRE and thus blocks Rev binding. To this end, chemical footprinting experiments were performed. The 67-nt RRE RNA was incubated alone, with Rev, or with increasing concentrations of neomycin B, tobramycin, or kanamycin A, (0.1, 1.0 and 10 μM). The incubation mixtures were then treated with either dimethyl sulfate (DMS), which methylates adenosine at N1 and cytosine at N3, or with kethoxal, which modifies N1 and N2 of guanosine. Modification of specific bases was detected by primer extension. Under these conditions, DMS and kethoxal are single strand-specific, and thus the modification pattern of RNA alone provides an indication of secondary structure.
smiles,measurement,setting,value
NC[C@@H]1O[C@H](O[C@H]2[C@@H](O)[C@H](O[C@@H]3[C@@H](O)[C@H](N)C[C@H](N)[C@H]3O[C@H]3O[C@H](CN)[C@@H](O)[C@H](O)[C@H]3N)O[C@@H]2CO)[C@H](N)[C@@H](O)[C@@H]1O [neomycin B],binding of GST-Sex lethal to the tra RNA,[1],unaffected
same,binding of GAPDH to tRNA^Tyr,[2],unaffected
same,HIV Tat-mediated activation of an HIV LTR-CAT reporter gene,[3],did not inhibit
same,DNA binding activity of ATF-2 to the HTLV-1 LTR,[4],remained unchanged
same,Rev function (CAT expression),Rev function,dose-dependent inhibition
same,protection of the RRE from chemical modification,67-nt RRE RNA,strongly protected residues 46-48
